This is an account of results in patent publication US8435978B2, “Substituted sulfonamide compounds” (Gruenenthal GmbH, priority 2006, dated 2013).

The target in one test is T1, B1R receptor of the rat (Rattus norvegicus, UniProt P97583).
T1 construct: host or cells: CHO K1 cells (Chinese hamster ovary), stably transfected
T1 sequence (P97583 1-337): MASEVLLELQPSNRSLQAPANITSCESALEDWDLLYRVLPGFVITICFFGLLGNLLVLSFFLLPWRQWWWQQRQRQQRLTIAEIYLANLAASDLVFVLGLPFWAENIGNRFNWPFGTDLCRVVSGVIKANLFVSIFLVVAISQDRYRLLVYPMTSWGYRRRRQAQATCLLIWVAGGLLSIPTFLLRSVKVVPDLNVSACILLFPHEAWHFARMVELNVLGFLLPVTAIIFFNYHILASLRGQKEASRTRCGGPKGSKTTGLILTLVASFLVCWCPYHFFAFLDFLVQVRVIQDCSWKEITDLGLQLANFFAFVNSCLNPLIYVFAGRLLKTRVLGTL
The experiment in a line: Functional study on the bradykinin receptor 1 (B1R), FLIPR Ca2+ assay, rB1R cells. Type of test: cell-based. The following applies: agonist Des-Arg9-bradykinin 100 nM, % inhibition compared with the maximum achievable inhibition; for inhibition at 10 µM: CHO-K1, test substance 10 μM, read-out: B1R Antagonism, rat [10 μM] % Inhibition. In short, it runs like this:
(§1)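 FLIPR Ca2+ read-out (Fluo-4, peak fluorescence) in stably transfected CHO K1 cells. Compounds at 10 μM, then 10 min later agonist challenge: human B1R with Lys-Des-Arg9-bradykinin 0.5 nM, rat B1R with Des-Arg9-bradykinin 100 nM; reported as % activation or % of maximal inhibition.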

For a further test, the target named is T2, human B1R receptor (Homo sapiens, UniProt P46663).
T2 construct: host or cells: CHO K1 cells (Chinese hamster ovary), stably transfected
T2 sequence (P46663 1-353): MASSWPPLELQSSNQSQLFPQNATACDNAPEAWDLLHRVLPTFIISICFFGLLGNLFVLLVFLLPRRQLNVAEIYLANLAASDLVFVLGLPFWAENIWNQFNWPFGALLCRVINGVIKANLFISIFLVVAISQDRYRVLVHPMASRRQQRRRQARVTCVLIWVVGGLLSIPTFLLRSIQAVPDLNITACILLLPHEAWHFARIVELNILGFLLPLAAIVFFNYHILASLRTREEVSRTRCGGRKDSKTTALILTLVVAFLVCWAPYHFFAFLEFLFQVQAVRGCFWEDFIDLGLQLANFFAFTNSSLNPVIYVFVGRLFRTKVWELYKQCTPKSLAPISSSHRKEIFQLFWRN
The experiment in a line: Functional study on the bradykinin receptor 1 (B1R), FLIPR Ca2+ assay, hB1R cells. It counts as cell-based. The following applies: agonist Lys-Des-Arg9-bradykinin 0.5 nM, % inhibition compared with the maximum achievable inhibition; for inhibition at 10 µM: CHO-K1, test substance 10 μM, read-out: B1R Antagonism, human [10 μM] % Inhibition. Put shortly:
as §1

Counter-ions that a name gives are not always drawn.

`CN1CCC(N2CCN(C(=O)COCC3CCCCN3S(=O)(=O)c3cccc4cccnc34)CC2)CC1` (stereo not shown) [Example 175, 1-(4-(1-methylpiperidin-4-yl)piperazin-1-yl)-2-((1-(quinolin-8-ylsulfonyl)piperidin-2-yl)methoxy)ethanone dihydrochloride]: the results for the inhibition at 10 µM on B1R receptor of the rat and at human B1R receptor were 86.3% and 103%, respectively.

On to `CN1CCC(N2CCN(C(=O)COCC3CCCCN3S(=O)(=O)c3cccc4cnccc34)CC2)CC1` (stereo not shown) [Example 176, 2-((1-(isoquinolin-5-ylsulfonyl)piperidin-2-yl)methoxy)-1-(4-(1-methylpiperidin-4-yl)piperazin-1-yl)ethanone dihydrochloride], for which the inhibition (as a rule, the relative decrease from the control value, in per cent) at 10 µM at B1R receptor of the rat is 36.5%; on human B1R receptor it was -24.8%.

Take `COc1cc(C)c(S(=O)(=O)N2CCCC[C@@H]2COCC(=O)N2CCN(C3CCN(C)CC3)CC2)c(C)c1` [Example 177, (R)-2-((1-(4-methoxy-2,6-dimethylphenylsulfonyl)piperidin-2-yl)methoxy)-1-(4-(1-methylpiperidin-4-yl)piperazin-1-yl)ethanone dihydrochloride]: the values for the inhibition at 10 µM at B1R receptor of the rat and at human B1R receptor were 100% and 104%, respectively.

In the case of `CN1CCC(N2CCN(C(=O)COCC3Cc4ccccc4CN3S(=O)(=O)c3ccc4ccccc4c3)CC2)CC1` (stereo not shown) [Example 178, 1-(4-(1-methylpiperidin-4-yl)piperazin-1-yl)-2-((2-(naphthalen-2-ylsulfonyl)-1,2,3,4-tetrahydroisoquinolin-3-yl)methoxy)ethanone dihydrochloride], the inhibition at 10 µM was found to be 99.8% on B1R receptor of the rat and 102% on human B1R receptor.

As to `CN1CCC(N2CCN(C(=O)COCC3CCCCN3S(=O)(=O)c3ccc4c(c3)CCCC4)CC2)CC1` (stereo not shown) [Example 179, 1-(4-(1-methylpiperidin-4-yl)piperazin-1-yl)-2-((1-(5,6,7,8-tetrahydronaphthalen-2-ylsulfonyl)piperidin-2-yl)methoxy)ethanone dihydrochloride], the inhibition at 10 µM turned out to be 100% on B1R receptor of the rat and 104% on human B1R receptor.

Take `COc1cc(C)c(S(=O)(=O)N2CCC[C@H]2COCC(=O)N2CCN(C3CCN(C)CC3)CC2)c(C)c1` [Example 180, (S)-2-((1-(4-methoxy-2,6-diimethylphenylsulfonyl)pyrrolidin-2-yl)methoxy)-1-(4-(1-methylpiperidin-4-yl)piperazin-1-yl)ethanone]: on B1R receptor of the rat (test substance 10 μM, rB1R CHO K1 cells), the “B1R Antagonism, rat [10 μM] % Inhibition” value amounted to 98.6%. Also, the “B1R Antagonism, human [10 μM] % Inhibition” value on human B1R receptor (test substance 10 μM, hB1R CHO K1 cells) came out at 104%.

With `COc1cc(C)c(S(=O)(=O)N2CCC[C@H]2COCC(=O)N2CCN(CC3CCN(C)CC3)CC2)c(C)c1` [Example 181, (S)-2-((1-(4-methoxy-2,6-dimethylphenylsulfonyl)pyrrolidin-2-yl)methoxy)-1-(4-((1-methylpiperidin-4-yl)methyl)piperazin-1-yl)ethanone], the results for the inhibition at 10 µM on B1R receptor of the rat and at human B1R receptor were 98.5% and 105%, respectively.

`COc1ccc(S(=O)(=O)N2Cc3ccccc3C[C@H]2COCC(=O)N2CCC(CCN3CCCC3)CC2)cc1` [Example 182, (S)-2-((2-(4-methoxyphenylsulfonyl)-1,2,3,4-tetrahydroisoquinolin-3-yl)methoxy)-1-(4-(2-(pyrrolidin-1-yl)ethyl)piperidin-1-yl)ethanone]: the inhibition at 10 µM on B1R receptor of the rat was 99.7%; at human B1R receptor, 91.1%.

Consider `O=C(COC[C@@H]1Cc2ccccc2CN1S(=O)(=O)c1ccc(Cl)cc1Cl)N1CCC(CCN2CCCC2)CC1` [Example 183, (S)-2-((2-(2,4-dichlorophenylsulfonyl)-1,2,3,4-tetrahydroisoquinolin-3-yl)methoxy)-1-(4-(2-(pyrrolidin-1-yl)ethyl)piperidin-1-yl)ethanone], for which the inhibition at 10 µM at B1R receptor of the rat is 96.9%; on human B1R receptor, 100%.

As to `CN1CCC(CN2CCN(C(=O)COC[C@@H]3Cc4ccccc4CN3S(=O)(=O)c3ccc(Cl)cc3Cl)CC2)CC1` [Example 184, (S)-2-((2-(2,4-dichlorophenylsulfonyl)-1,2,3,4-tetrahydroisoquinolin-3-yl)methoxy)-1-(4-((1-methylpiperidin-4-yl)methyl)piperazin-1-yl)ethanone], the inhibition at 10 µM came out at 99% at B1R receptor of the rat and 105% on human B1R receptor.

As for `COc1cc(C)c(S(=O)(=O)N2Cc3ccccc3C[C@H]2COCC(=O)N2CCN(CC3CCN(C)CC3)CC2)c(C)c1` [Example 185, (S)-2-((2-(4-methoxy-2,6-dimethylphenylsulfonyl)-1,2,3,4-tetrahydroisoquinolin-3-yl)methoxy)-1-(4-((1-methylpiperidin-4-yl)methyl)piperazin-1-yl)ethanone], the results for the inhibition at 10 µM on B1R receptor of the rat and on human B1R receptor were 97.9% and 105%, respectively.

Take `COc1cc(C)c(S(=O)(=O)N2CCCC[C@H]2COCC(=O)N2CCC(Oc3ccncc3)CC2)c(C)c1` [Example 186, (S)-2-((1-(4-methoxy-2,6-dimethylphenylsulfonyl)piperidin-2-yl)methoxy)-1-(4-(pyridin-4-yloxy)piperidin-1-yl)ethanone hydrochloride]: the inhibition at 10 µM was found to be 97.1% at B1R receptor of the rat and 106% at human B1R receptor.

For `COc1cc(C)c(S(=O)(=O)N2Cc3ccccc3C[C@H]2COCC(=O)N2CCC(CCN3CCCC3)CC2)c(C)c1` [Example 187, (S)-2-((2-(4-methoxy-2,6-dimethylphenylsulfonyl)-1,2,3,4-tetrahydroisoquinolin-3-yl)methoxy)-1-(4-(2-(pyrrolidin-1-yl)ethyl)piperidin-1-yl)ethanone], the inhibition at 10 µM was determined as 102% at B1R receptor of the rat and 100% on human B1R receptor.

Take `COc1cc(C)c(S(=O)(=O)N2CCCCC2COCC(=O)N2CCC(COc3ccncc3)CC2)c(C)c1` (stereo not shown) [Example 188, 2-((1-(4-methoxy-2,6-dimethylphenylsulfonyl)piperidin-2-yl)methoxy)-1-(4-((pyridin-4-yloxy)methyl)piperidin-1-yl)ethanone]: the inhibition at 10 µM on B1R receptor of the rat and on human B1R receptor was 102% throughout.

For the compound `COc1ccc(S(=O)(=O)N2Cc3ccccc3C[C@H]2COCC(=O)N2CCN(CC3CCN(C)CC3)CC2)cc1` [Example 189, (S)-2-((2-(4-methoxyphenylsulfonyl)-1,2,3,4-tetrahydroisoquinolin-3-yl)methoxy)-1-(4-((1-methylpiperidin-4-yl)methyl)piperazin-1-yl)ethanone dihydrochloride], the inhibition at 10 µM at B1R receptor of the rat is 86.4%; at human B1R receptor it was 70.7%.

For the compound `COc1cc(C)c(S(=O)(=O)N2CCC[C@H]2COCC(=O)N2CCC(CCN3CCCC3)CC2)c(C)c1` [Example 190, (S)-2-((1-(4-methoxy-2,6-dimethylphenylsulfonyl)pyrrolidin-2-yl)methoxy)-1-(4-(2-(pyrrolidin-1-yl)ethyl)piperidin-1-yl)ethanone hydrochloride], the inhibition at 10 µM at B1R receptor of the rat and on human B1R receptor was 102% in each case.

As for `COc1cc(C)c(S(=O)(=O)N2CCCC2COCC(=O)N2CCN(C3CCN(C)CC3)CC2)c(C)c1` (stereo not shown) [Example 192, 2-((1-(4-methoxy-2,6-dimethylphenylsulfonyl)pyrrolidin-2-yl)methoxy)-1-(4-(1-methylpiperidin-4-yl)piperazin-1-yl)ethanone], the inhibition at 10 µM at B1R receptor of the rat is 100%; on human B1R receptor, 106%.

Regarding `COc1cc(C)c(S(=O)(=O)N2CCCCC2COCC(=O)N(C)CCC2CCC(N3CCCC3)CC2)c(C)c1` (stereo not shown) [Example 194, 2-((1-(4-methoxy-2,6-dimethylphenylsulfonyl)piperidin-2-yl)methoxy)-N-methyl-N-(2-(4-(pyrrolidin-1-yl)cyclohexyl)ethyl)acetamide], the inhibition at 10 µM came to 100% at B1R receptor of the rat and 103% at human B1R receptor.

Regarding `COc1cc(C)c(S(=O)(=O)N2CCCCC2COCC(=O)NCc2cccc(Oc3cnccn3)c2)c(C)c1` (stereo not shown) [Example 195, 2-((1-(4-methoxy-2,6-dimethylphenylsulfonyl)piperidin-2-yl)methoxy)-N-(3-(pyrazin-2-yloxy)benzyl)acetamide], the inhibition at 10 µM was 98.8% on B1R receptor of the rat and 85.1% at human B1R receptor.

As to `COc1cc(C)c(S(=O)(=O)N2CCCCC2COCC(=O)NCc2ccc(Oc3cnccn3)cc2)c(C)c1` (stereo not shown) [Example 196, 2-((1-(4-methoxy-2,6-dimethylphenylsulfonyl)piperidin-2-yl)methoxy)-N-(4-(pyrazin-2-yloxy)benzyl)acetamide], the inhibition at 10 µM was determined as 98.8% at B1R receptor of the rat and 100% on human B1R receptor.
